Reference: PubChem BioAssay (NCI)
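Cultured in 96-well plates, cells were exposed to test compound for 48 hours across five concentrations. TGI: concentration producing complete growth inhibition.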

Experiments:
Assay in all cases: NCI tumour cell line growth inhibition, 48 h
[1] = test system: OVCAR-4 ovarian
[2] = test system: RXF 393 renal
[3] = test system: SR leukemia
[4] = test system: PC-3 prostate
[5] = test system: SNB-75 CNS
[6] = test system: NCI-H522 lung
[7] = test system: MALME-3M melanoma
[8] = test system: 786-0 renal
[9] = test system: CCRF-CEM leukemia
[10] = test system: NCI-H460 lung
[11] = test system: HOP-92 NSCLC
[12] = test system: HS 578T breast
[13] = test system: SK-MEL-28 melanoma
[14] = test system: SNB-19 CNS
[15] = test system: SF-268 CNS
[16] = test system: SN12C renal

| Compound | TGI [1] [µM] | TGI [2] [µM] | TGI [3] [µM] | TGI [4] [µM] | TGI [5] [µM] | TGI [6] [µM] | TGI [7] [µM] | TGI [8] [µM] | TGI [9] [µM] | TGI [10] [µM] | TGI [11] [µM] | TGI [12] [µM] | TGI [13] [µM] | TGI [14] [µM] | TGI [15] [µM] | TGI [16] [µM] |
| --- | --- | --- | --- | --- | --- | --- | --- | --- | --- | --- | --- | --- | --- | --- | --- | --- |
| CC(NC1=NCCO1)c1ccsc1 (configuration not stated) | > 100 | 85.8 | 99.6 | 57.8 | 47.3 | 35 | 58 | 42.9 | 46.5 | 33.2 | 92.5 | 33.9 | 43 | > 100 |  |  |
| C=CC(=O)C#Cc1cnc(OC)nc1OC | 42.3 | > 66.2 | 6.15 | 42 | 20.5 | 42.7 | 53.3 | 12.6 | 2.97 | > 59.9 | > 54.3 | > 88.3 | > 47 | > 58.9 | > 71.9 | 37.7 |
| COc1cc2c(SCCN(C)C)nc3ccccc3c2c2ccccc12 | 9.22 | 4.29 | 4.42 | 8.24 | 8.32 | 2.79 | 3.99 | 3.76 | 4.56 | 3.33 | 5.83 | 8.61 | 3.17 | 8.14 | 5.39 | 6.41 |
| CC1(C)COC(c2cccc(C(O)c3ccc(Cl)cc3)c2)=N1 (configuration not stated) | > 100 | 37.8 | > 100 | 53.8 | 60.5 | > 100 | 59.9 | 59.8 | > 100 | > 100 | 59 | > 100 | > 100 | > 100 | 87.3 | 73.9 |
| O=C(Cc1csc2[n+]1C(=O)/C(=C/c1ccc(Cl)cc1)S2)Nc1ccccc1 | > 100 | 42.6 | > 100 | 41.3 | 94.6 | 40.5 | 90.6 | 90.9 | > 100 | 48.8 | 78.4 | > 100 | > 100 | > 100 | 78 | > 100 |
| CCN(CC)CCC(=O)c1ccc(Cl)c(Cl)c1 | > 100 | 25.3 | 64.2 | > 100 | 80.1 | 32.8 | 41.7 | 31.9 | 50.5 | > 100 | 30.6 | 45.9 | 30.5 | > 100 | 63.4 | > 100 |
| O=C(NCCc1ccccn1)c1ccc2cc(C(=O)N3CC(CCl)c4ccc([N+](=O)[O-])cc43)[nH]c2c1 (configuration not stated) | 48.3 | 60.3 | > 100 | > 100 | > 100 | > 86.7 | > 100 | > 63 | > 100 | > 100 | 52.1 | > 100 | > 100 | 87.5 | > 100 | > 100 |
| COc1ccc(NC(=O)CSc2nc(C)nc3c2sc(=S)n3-c2ccccc2)cc1 | 9.29 | > 10 | > 10 | > 10 | 8.21 | > 10 | > 10 | > 10 | > 10 | > 10 | > 10 | > 10 | > 10 | > 10 | > 10 | > 10 |
| COC(=O)c1cc(C#N)[nH]c1-c1ccc(Br)s1 | 36.7 | 19.4 | > 51.9 | 13.4 | 24.9 | 19.6 | 19.7 | 27.7 | 49.9 | 37.8 | 15.3 | 20.8 | 24.4 | 22.3 | 24.2 | 26 |
| C[C@H]1[C@H]2[C@H](C[C@@]3(C)C4=CC[C@H]5C(C)(C)[C@@H](OC6OCC(O)C(O)C6O)CC[C@@]56C[C@@]46CC[C@]23C)O[C@@]2(O)[C@@H]1OC(C)(C)[C@H]2O (some centres not stated) | 7.17 | 3.71 | 9.01 | 2.32 | 6 | 2.42 | 3.79 | 2.76 | 3.24 | 7.83 | 3.28 | 3.7 | 6.23 | 8.4 | 6.35 | 2.75 |
| C[Si](C)(C)CCOCN(C(=O)C1=CCC2(CC1)OCCO2)c1ccccc1I | 45.5 | 35.4 | > 100 | 27 | 34.6 | 38.7 | 52.9 | 39.8 | 79.5 | 61.3 | 22.1 | 44.6 | 42.9 | 37.7 | 41.9 | 70.9 |
| C=C(Cl)[C@](Cl)(CBr)CC[C@@H](Br)C(C)(C)Cl | 3.44 | 0.576 | 25.5 | 1.18 | 2.09 | 30.2 | 24.2 | 0.552 | 46.6 | 2.46 | 1.1 | 1.41 | 3.27 | 3.27 | 2.18 | 17.6 |
| Cc1ccc(S(=O)(=O)NC(=O)NC(CCCCN)C(=O)O)cc1 (configuration not stated) | > 100 | > 100 | > 100 | > 100 | > 100 | > 100 | > 100 | > 100 | > 100 | > 100 | > 100 | > 100 | > 100 | > 100 | > 100 | > 100 |
| COC(=O)NCCc1[nH]nc2c1C(=O)C=C(Nc1ccccc1OC)C2=O | 57.7 | > 100 | 86.1 | > 100 | > 100 | 78.2 | 28 | > 100 | 88.9 | > 100 | > 100 | 99.7 | 95.9 | > 100 | > 100 | > 100 |
| CC(=O)n1nc(-c2[nH]c(C)c(-c3nn(C(C)=O)c(=S)o3)c2C)oc1=S | > 100 | > 100 | > 100 | > 100 | > 100 | > 100 | > 96.6 | > 100 | > 71.4 | > 100 | > 100 | > 100 | > 100 | > 100 | > 100 | > 100 |
| O=[N+]([O-])c1ccc(C2Nn3c(nnc3-c3cccc([N+](=O)[O-])c3)S2)cc1 (configuration not stated) | > 100 | > 100 | > 100 | > 100 | > 100 | > 100 | > 100 | > 100 | > 100 | > 100 | > 100 | > 100 |  | > 100 | > 100 | > 100 |
| CN1CCOC1(C)c1ccccc1 (configuration not stated) | > 100 | > 100 | > 100 | > 100 | > 100 | > 100 | > 100 | > 100 | > 100 | > 100 | > 100 | > 100 | > 100 | > 100 | > 100 | > 100 |
| O=C(CNc1ccc([N+](=O)[O-])cc1)Nn1c(-c2ccccc2)nc2ccccc2c1=O | 10.3 | 8.84 | > 37.4 | 13.2 | 11.3 | 4.79 | 4.82 | 6.26 | > 21.6 | 14.3 | 6.66 | 8.22 | 10.8 | 23.1 | 16.4 | 5.19 |
| COC(=O)CSc1cc(Cl)c(C)cc1S(=O)(=O)Nc1n[nH]c(N)n1 | > 10 | > 10 | > 10 | > 10 | > 10 | > 10 | > 10 | > 10 | > 10 | > 10 | > 10 | > 10 | > 10 | > 10 | > 10 | > 10 |
| O=c1c2ccccc2nc(-c2ccccc2)n1/N=C/c1ccccc1[N+](=O)[O-] | > 100 | 80.4 | > 100 | > 100 | 34.2 | > 100 | > 100 | > 100 | > 100 | > 100 | 98.4 | 15.9 | > 100 | 56.7 | > 68.7 | > 100 |
